Measured values from publication PMC12209172, “Poly(ADP-ribose)polymerase 2 is zinc-dependent enzyme and nucleosome reorganizer” (Cellular and Molecular Life Sciences: CMLS, 2025).

Tests used:
PARP2 [1] = biological target: T1, PARP2 (Mus musculus, UniProt O88554); test: Circular dichroism spectroscopy of PARP2 (BeStSel secondary structure analysis); parameters: Recombinant mouse full-length PARP2 was obtained in the baculovirus expression system; made in house; host or cells: Sf9 insect cells (baculovirus); gift of Prof; O. Lavrik; conditions: 0.3 mM Zn2+, 0.7 mM Ca2+ or 0.7 mM Mg2+
Description: CD spectra of proteins were recorded within the 190-250 nm spectral range with 0.2 nm step using Jasco-810 spectrophotometer (Jasco, Japan) and the quartz […]® cuvette of 0.1 mm thickness (Hellma, Germany. Secondary structure analysis was performed using BeStSel webserver. To improve the reliability of the analysis, the content of canonical secondary structures of various types was predicted for 3-6 independent measurements, and the values were averaged. The statistical significance of the secondary structure difference was determined using the multiple t-test.

[2] = biological target: T2, PARP2-nucleosome complexes (Mus musculus, UniProt O88554); test: spFRET microscopy in solution of nucleosomes and PARP2-nucleosome complexes; conditions: for EPR centre of the structural state of nucleosomes: PARP2 plus 0.3 mM Zn2+
T2 construct: Recombinant mouse full-length PARP2 was obtained in the baculovirus expression system; made in house; host or cells: PARP2: Sf9 insect cells (baculovirus), gift of Prof; O. Lavrik; nucleosomes assembled in house
Description: In the study of nucleosome-PARP2 interactions, nucleosomes (1-2 nM) were incubated with PARP2 (12.5-200 nM) in buffer A (50 mM Tris-HCl pH 7.5; 40 mM NaCl; 0.5 mM β-mercaptoethanol (β-ME); 0.1% NP40) at 25 °C for 30 min. When indicated, buffer A was supplemented with 50 μM - 5 mM ZnCl2, 5 mM CaCl2 or 5 mM MgCl2. […] […] measurements in solution were performed as described previously. Each measured single nucleosome was characterized by FRET between Cy3 and Cy5 labels calculated as a proximity ratio (EPR):1 [drawing 1] Where I3 and I5 are fluorescence intensities of Cy3 and Cy5, respectively, and coefficients 0.19 and 0.81 provide correction for the spectral cross-talk between Cy3 and Cy5 detection channels. EPR is a FRET efficiency not corrected for quantum yields of labels and an instrumentation factor. Relative frequency distributions of nucleosomes by EPR values, i.e. EPR profiles, (2000-5000 nucleosomes per experiment; 3 independent experiments) were plotted and further analyzed as a superposition of several normal (Gaussian) distributions for nucleosomes or nucleosome-PARP2 complexes. Since nucleosomes tend to aggregate when PARP2 is added (especially at high concentrations), treatment of signals measured from nucleosomes and their complexes included mandatory rejection of signals from any aggregates that are clearly recognized due to their slow diffusion rate and/or abnormally high fluorescence intensity.

PARP2 [3] = biological target: T1, PARP2; test: Western blot analysis of NAD+-dependent PARylation by PARP2 in PARP2-nucleosome complexes; assay type: biochemical; parameters: Recombinant mouse full-length PARP2 was obtained in the baculovirus expression system; made in house; host or cells: PARP2: Sf9 insect cells (baculovirus), gift of Prof; O. Lavrik; nucleosomes assembled in house; conditions: Mg2+ 5 mM or Zn2+ 0.3 mM; PARP2 100 nM, nucleosomes 3 nM, NAD+ 0-5 µM
Description: Probes were subjected to electrophoresis in 4–12% bis-Tris gradient gel in the NuPAGE™ MES SDS Running Buffer at 130 V. […] The membrane was incubated for 60 min in the PBS-T solution supplemented with the 5% skimmed milk. Then the membrane was incubated with mouse monoclonal antibodies 10 H followed by incubation with the secondary anti-mouse antibodies conjugated with horseradish peroxidase (Bio-Rad, Hercules, CA, USA). The washing procedure was carried out after each step of incubation. Immunodetection was performed using the Super Signal West Pico Chemiluminescent Substrate (Thermo Fisher Scientific, Waltham, MA, USA) for 3 min. The Western blot experiments were performed in three independent repetitions.

PARP2 [4] = biological target: T1, PARP2; test: Tryptophan fluorescence spectroscopy of PARP2 with Zn2+; assay type: binding; parameters: Recombinant mouse full-length PARP2 was obtained in the baculovirus expression system; made in house; host or cells: Sf9 insect cells (baculovirus); gift of Prof; O. Lavrik; conditions: PARP2 0.5 µM, Zn2+ 377 µM
Description: Fluorescence spectra of Trp residues were measured in the 300–450 nm spectral range at the 270 nm excitation wavelengths using the Cary Eclipse spectrofluorometer (Varian/Agilent, USA).
Fluorescence of PARP2 was measured at 0.5 µM in a buffer containing 7% glycerin, 33 µM HEPES (pH 8.0), 75 mM NaCl, 89 µM EDTA, 27 µM ZnCl2, 1.5 µM TCEP. A solution of PARP2 was complemented with ZnCl2 to 377 µM.

[Cl-].[Cl-].[Zn+2] [Zn2+, ZnCl2]
effect of ions on the CD spectrum / conformation of PARP2 (PARP2 [1]): small conformational changes | effect of ions on the nucleosome structure ([2]; NP nucleosomes without PARP2, 5 mM ions): minimally affect | EPR centre of the new peak in the EPR profile ([2]; NP nucleosomes, PARP2 plus Zn2+): 0.4 | EPR centre of the structural state of nucleosomes ([2]; Nd nucleosomes): 0.5 | EPR centre of the structural state of nucleosomes ([2]; Nm nucleosomes): 0.4 | Zn2+ concentration above which the structure of PARP2-nucleosome complexes is affected ([2]; PARP2 50 nM, NP nucleosomes): higher than 75 µM | Zn2+ concentration at which all the complexes are converted to the altered conformation ([2]; PARP2 50 nM, NP nucleosomes): 150 µM | effect of ions on the structure of nucleosomes in PARP2-nucleosome complexes ([2]; PARP2 50 nM, Zn2+ 0.3 mM, Ca2+ 5 mM or Mg2+ 5 mM): induce alterations in the structure of PARP2-nucleosome complexes | effect of Zn2+ on the affinity of PARP2 to nucleosomes ([2]; compared with EMSA in the absence of Zn2+): not significantly affected | effect of ions on efficiency of PARP2-mediated PARylation (PARP2 [3]): decrease | intensity of fluorescence spectrum of tryptophan residues of PARP2 after addition of ions (PARP2 [4]): increased
